Data: PMC8074792, “An ω-3, but Not an ω-6 Polyunsaturated Fatty Acid Decreases Membrane Dipole Potential and Stimulates Endo-Lysosomal Escape of Penetratin” (Frontiers in Cell and Developmental Biology, 2021)

Columns and labels:
[1] = tested on: JY cells; assay: Membrane dipole potential, di-8-ANEPPS excitation ratio, spectrofluorometry; type: cell-based, human; settings: for Rexc, di-8-ANEPPS (excitation ratio 410-440 nm / 490-520 nm, positively correlates with DP): agent 20-200 μM, 10 min, 0.05% Pluronic F-127, measured at 37°C, mean of 5 experiments
Procedure: (§1) The human acute monocytic leukemia-derived cell line THP-1 and the human Epstein-Barr virus (EBV) transformed lymphoblastoid cell line JY were obtained from the American Type Culture Collection (Manassas, VA, United States) and cultivated according to their specifications. […] As controls, cells were treated with the corresponding amounts of native MβCD complexes not containing sterols. To study the effects of fatty acids, cells were incubated for 48 h in medium supplemented with saturated stearic acid (SA, Sigma Aldrich), ω-3 polyunsaturated α-linolenic acid (ALA, Sigma Aldrich) or ω-6 polyunsaturated γ-linolenic acid (GLA, Sigma Aldrich) at various concentrations ranging from 12.5 to 50 μM. […] After washing, cells were kept on ice and samples were subsequently warmed to 37°C right before measurements carried out with a Fluorolog-3 spectrofluorometer (Horiba Jobin Yvon, Edison, NJ, United States). During measurements, the cuvette holder was kept at 37°C using a circulating water bath. Excitation spectra were recorded between 380 and 550 nm with the detected emission wavelength set to 660 nm in order to minimize effects of possible changes in membrane fluidity ([Clarke and Kane, 1997]). The ratio of fluorescence intensities integrated between excitation wavelengths 410–440 nm and 490–520 nm was calculated for each sample, which positively correlates with the magnitude of DP ([Clarke and Kane, 1997]; [Kovacs et al., 2017]; [Batta et al., 2020]).

[2] = tested on: THP-1 cells; assay: as above; type: cell-based, human; settings: for Rexc, di-8-ANEPPS (excitation ratio 410-440 nm / 490-520 nm, positively correlates with DP): agent 20-200 μM, 10 min, 0.05% Pluronic F-127, measured at 37°C, mean of 5 experiments
Procedure: as §1

[3] = tested on: JY cells; assay: Membrane dipole potential, F66 emission ratio, flow cytometry; type: cell-based, human; settings: n = 5; for Rem, F66 (emission ratio N*/T*, 470-490 nm / 564-606 nm, negatively correlates with DP): agent 20-200 μM, 10 min, 0.05% Pluronic F-127, at least 20,000 living cells per sample
Procedure: (§2) The human acute monocytic leukemia-derived cell line THP-1 and the human Epstein-Barr virus (EBV) transformed lymphoblastoid cell line JY were obtained from the American Type Culture Collection (Manassas, VA, United States) and cultivated according to their specifications. […] As controls, cells were treated with the corresponding amounts of native MβCD complexes not containing sterols. To study the effects of fatty acids, cells were incubated for 48 h in medium supplemented with saturated stearic acid (SA, Sigma Aldrich), ω-3 polyunsaturated α-linolenic acid (ALA, Sigma Aldrich) or ω-6 polyunsaturated γ-linolenic acid (GLA, Sigma Aldrich) at various concentrations ranging from 12.5 to 50 μM. […] After washing, the fluorescence intensities of cells were determined with a FACS Aria III flow cytometer (Becton Dickinson, Mountain View, CA, United States) at 37°C. […] Data analysis was carried out in FCS Express (De Novo Software, Los Angeles, CA, United States). The ratio of emitted intensities in the two wavelength ranges (N^∗/T^∗) was determined for each cell and the average value was calculated for each sample from the data of living cells gated on FSC-SSC dot plots. The value of N^∗/T^∗ ratio negatively correlates with the magnitude of DP ([Kovacs et al., 2017]).

[4] = tested on: THP-1 cells; assay: as above; type: cell-based, human; settings: n = 5; for Rem, F66 (emission ratio N*/T*, 470-490 nm / 564-606 nm, negatively correlates with DP): agent 20-200 μM, 10 min, 0.05% Pluronic F-127, at least 20,000 living cells per sample
Procedure: as §2

[5] = tested on: JY cells; assay: Membrane fluidity, TMA-DPH fluorescence anisotropy; type: cell-based, human; settings: 200 μM sterol 1 h or 50 μM fatty acid 48 h, 37°C, n = 6, vs control
Procedure: (§3) 4′-(trimethylammonio)-diphenylhexatriene (TMA-DPH) was purchased from Sigma-Aldrich, dissolved in tetrahydrofuran and used for determination of membrane fluidity as described previously ([Batta et al., 2018]). […] Fluorescence intensities were measured without washing using a Fluorolog-3 spectrofluorometer (Horiba Jobin Yvon, Edison, NJ, United States) with the temperature of the cuvette holder adjusted to 37°C by a circulating water bath. The fluorescence anisotropy (r) of TMA-DPH was determined in the L-format after excitation at 352 nm and measurement of fluorescence intensities at 430 nm according to the formula: […]

[6] = tested on: THP-1 cells; assay: Membrane fluidity, TMA-DPH fluorescence anisotropy; type: cell-based, human; settings: 200 μM sterol 1 h or 50 μM fatty acid 48 h, 37°C, n = 6, vs control
Procedure: as §3

[7] = tested on: JY cells; assay: Membrane hydration, PY3174 generalized polarization, confocal microscopy; type: cell-based, human; settings: 200 μM sterol 1 h or 50 μM fatty acid 48 h, efficacy order 6KC > cholesterol ≥ 7DHC, effects of 7DHC and SA not statistically significant
Procedure: (§4) For these measurements, cells were labeled with 10 μM PY3174 for 20 min at room temperature. […] During processing, segmentation of images into membrane and non-membrane pixels was carried out with the manually seeded watershed algorithm using a custom-written MATLAB program as described previously ([Kovacs et al., 2017]). The average value of general polarization correlating with the degree of membrane compactness ([[…] et al., 2013]) was calculated from the data of cell membrane pixels after background subtraction using […]

[8] = tested on: THP-1 cells; assay: as above; type: cell-based, human; settings: 200 μM sterol 1 h or 50 μM fatty acid 48 h, efficacy order 6KC > cholesterol ≥ 7DHC, all statistically significant
Procedure: as §4

[9] = tested on: JY cells; assay: Penetratin uptake and endo-lysosomal escape, time-correlated flow cytometry; type: cell-based, human; settings: 37°C
From the text: (§5) Penetratin ([…]-amide, molecular weight 2245.75 g/mol) was synthesized manually on TentaGel R RAM (Rapp Polymere, Tübingen, Germany), a low crosslinked polystyrene PEG copolymer resin by the solid-phase method of Merrifield with standard Fmoc chemistry, as described in detail in our recent study ([Batta et al., 2020]). After coupling the last arginine, one half of the penetratin was reacted with AFDye532 N-hydroxysuccinimide ester (molecular weight 723.77 g/mol, Fluoroprobes, Scottsdale, AZ, United States), while the other half with 5(6)-carboxynaphthofluorescein N-succinimidyl ester (molecular weight 573.51 g/mol, Darmstadt, Germany). Completion of the coupling was assessed by Kaiser test, which was followed by deprotection and release from the resin. After filtration and precipitation with cold diethyl ether, the crude products were purified by preparative reversed-phase HPLC (JASCO, Victoria, BC, Canada) on a C18 column and lyophilized. The purity of the products (>95%) was assessed by reversed-phase HPLC (JASCO) equipped with an analytical C18 column. […] These values well correlated with the predicted masses of the labeled peptides (2983.59 and 2833.33, respectively).
(§6) Total cellular penetratin uptake and endo-lysosomal escape was determined as described previously ([Batta et al., 2020]). Briefly, control THP-1 or JY cells and those treated with 50 μM ALA, GLA or SA for 48 h at 37°C were incubated in the continuous presence of 5 μM AFDye532-penetratin, 5 μM NF-penetratin and 0.25 μg/ml DAPI at 37°C in the thermostated sample holder of a FACS Aria III flow cytometer. The fluorescence intensity of DAPI was measured using an excitation at 405 nm and an emission filter 450/20 nm. AFDye532 and NF were excited at 488 and 561 nm, respectively, and their fluorescence was determined using emission filters 530/30 and 670/14 nm, respectively. Measurements started immediately after addition of DAPI and penetratin and continued for 20 min at 37°C. Experimental data were analyzed first in FCS Express. Time-correlated fluorescence intensity values of DAPI-negative living cells were exported after spectral compensation and the moving averages of samples were calculated with a window size of 10 s. […] During analysis, fluorescence intensity values were first normalized to the average intensity in the first time window, which was followed by calculation of the fluorescence ratio from the normalized values.

[10] = tested on: THP-1 cells; assay: as above; type: cell-based, human; settings: 37°C
From the text: as §5, §6

[11] = set-up: method as in Batta et al., 2020; settings: lowering DP with the agent; ref Batta et al., 2020; cited from earlier work
From the text: One of the most widely studied cellular functions influenced by the magnitude of DP is the cellular binding and uptake of certain substances including drugs ([Asawakarn et al., 2001]), β-amyloid ([Hertel et al., 1997]) and other peptides ([Cladera and O’Shea, 1998]; [Zhan and Lazaridis, 2012]). […] Although cell-penetrating peptides are promising therapeutic tools for de ...

[12] = sterol-MβCD complex, 60 min, room temperature, at the maximal applied concentration of 200 μM, n = 5, statistically significant
[13] = 5 μM AFDye532-penetratin + 5 μM NF-penetratin, flow cytometry, living cells
[14] = 5 μM AFDye532-penetratin + 5 μM NF-penetratin, continuous presence, flow cytometry, DAPI-negative living cells
[15] = 5 μM of each labeled penetratin, decline followed by a continuous gradual increase
[16] = fatty acid 12.5-50 μM for 48 h, result at maximal 50 μM, n = 5
[17] = 50 μM fatty acid 48 h, then 50 or 200 μM cholesterol 1 h
[18] = 50 μM fatty acid 48 h, 5 μM AFDye532- and 5 μM NF-penetratin, compared at 900 s, n = 5

Molecule | Rexc, di-8-ANEPPS (excitation ratio 410-440 nm / 490-520 nm, positively correlates with DP) ([1]; room temperature) | Rexc, di-8-ANEPPS [1, 12] | Rexc, di-8-ANEPPS (excitation ratio 410-440 nm / 490-520 nm, positively correlates with DP) ([2]; room temperature) | Rexc, di-8-ANEPPS [2, 12] | Rem, F66 (emission ratio N*/T*, 470-490 nm / 564-606 nm, negatively correlates with DP) [3] | Rem, F66 (emission ratio N*/T*, 470-490 nm / 564-606 nm, negatively correlates with DP) [4] | TMA-DPH fluorescence anisotropy (inversely correlates with membrane fluidity) [5] | TMA-DPH fluorescence anisotropy (inversely correlates with membrane fluidity) [6] | PY3174 generalized polarization in the cell membrane (inversely correlates with membrane hydration) [7] | PY3174 generalized polarization in the cell membrane (inversely correlates with membrane hydration) [8] | also measured
CC(C)CCC[C@@H](C)[C@H]1CC[C@H]2[C@@H]3CC(=O)[C@H]4C[C@@H](O)CC[C@]4(C)[C@H]3CC[C@]12C [6KC, 3β-hydroxy-5α-cholestan-6-one] | dose-dependently increased | robustly elevated | dose-dependently increased | robustly elevated | dose-dependent decreases | dose-dependent decreases | did not reach statistical significance | did not reach statistical significance | shifted toward the positive direction | shifted toward the positive direction | 
RQIKIWFQNRRMKWKK-amide [penetratin] |  |  |  |  |  |  |  |  |  |  | duration of fast increase of NF signal (endo-lysosomal escape of penetratin), followed by slower continuous rise [9, 13]: 180 to 240 s; time of saturation of AFDye532 signal (total cellular penetratin concentration) [9, 14]: 120 to 180 s; time course of ratio of NF and AFDye532 (fraction of penetratin in the cytosol) [9, 15]: initially declined; duration of fast increase of NF signal (endo-lysosomal escape of penetratin), followed by slower continuous rise [10, 13]: 180 to 240 s; time of saturation of AFDye532 signal (total cellular penetratin concentration) [10, 14]: 120 to 180 s; time course of ratio of NF and AFDye532 (fraction of penetratin in the cytosol) [10, 15]: initially declined
CC(C)CCC[C@@H](C)[C@H]1CC[C@H]2C3=CC=C4C[C@@H](O)CC[C@]4(C)[C@H]3CC[C@]12C [7DHC, 7-dehydrocholesterol] |  | slightly raised |  | slightly raised |  |  | significantly elevated | significantly elevated | shifted toward the positive direction | shifted toward the positive direction | 
CCCCCCCCCCCCCCCCCC(=O)O [SA, stearic acid] |  |  |  |  |  |  | did not reach statistical significance | did not reach statistical significance | increased the generalized polarization, albeit to a miniscule extent | increased the generalized polarization, albeit to a miniscule extent | Rexc, di-8-ANEPPS [1, 16]: slightly higher; Rexc, di-8-ANEPPS [2, 16]: slightly higher; effect of fatty acid pretreatment on cholesterol-induced DP elevation (Rem, F66) [3, 17]: a tendency to augment the cholesterol-induced DP changes; effect of fatty acid pretreatment on cholesterol-induced DP elevation (Rem, F66) [4, 17]: a tendency to augment the cholesterol-induced DP changes; Rem, F66 ([4]; fatty acid 12.5-50 μM for 48 h): opposite changes were observed in response to SA or GLA with the former not reaching the level of significance; ratio of NF and AFDye532 intensities (endo-lysosomal escape of penetratin) vs controls [9, 18]: no significant changes; ratio of NF and AFDye532 intensities (endo-lysosomal escape of penetratin) vs controls [10, 18]: no significant changes
O=C(CCc1ccc(O)cc1)c1c(O)cc(O)cc1O [phloretin, 3-(4-hydroxyphenyl)-1-(2,4,6-trihydroxyphenyl) propan-1-one] | dose-dependently decreased |  | dose-dependently decreased |  | increased Rem, F66 values implying lower magnitudes of DP, this change did not reach the level of significance in one of the cell lines | increased Rem, F66 values implying lower magnitudes of DP, this change did not reach the level of significance in one of the cell lines |  |  |  |  | cellular uptake and endo-lysosomal escape of penetratin [11]: increased
CC(C)CCC[C@@H](C)[C@H]1CC[C@H]2[C@@H]3CC=C4C[C@@H](O)CC[C@]4(C)[C@H]3CC[C@]12C [cholesterol] |  | moderately increased |  | moderately increased |  |  | significantly elevated | significantly elevated | shifted toward the positive direction | shifted toward the positive direction | 
